From patent US12226375B1, “Method of treatment and selection of patients benefiting from agomelatine based on EEG measurements” (Alto Neuroscience, Inc., priority 2023, dated 2025)

How the values were obtained:
circadian rhythm = conditions: due to melatonergic agonism; cited from earlier work
sleep measures = conditions: in contrast to an SSRI which did not change these measures; cited from earlier work
[1] = tested on: unselected depression patients; conditions: meta-analytically calculated; cited from earlier work
[2] = tested on: patients with major depressive disorder; assay: Open-label trials of adjunctive agomelatine 25 mg at bedtime in MDD (NCT05118750, NCT05157945): MADRS change by EEG-predicted response; format: in vivo, human
Protocol: The inventors conducted two parallel open-label clinical trials of agomelatine at 25 mg once at bedtime in patients with major depressive disorder (NCT05118750 and NCT05157945, whose data was pooled in these analyses). […] Patients were evaluated over the course of eight weeks of treatment.
EEG data were collected at rest (encompassing both eyes open and eyes closed conditions) prior to treatment using a 19-channel EEG system covering the conventional 10-20 electrode locations. A total of 107 patients with moderate to severe depression (MADRS≥20 and PHQ-9≥10) had EEG data (107 with eyes open (REO) EEG, 105 with eyes closed (REC) EEG). Quality control assessments were conducted, yielding 105 REO patient datasets and 103 REC patient datasets. […] The training dataset consisted of 60 REO patient datasets and 60 REC patient datasets. The holdout set consisted of 49 REO patient datasets and 46 REC patient datasets.
In order to compile these individual signals into a single EEG composite entropy model for prediction of treatment outcome, the inventors conducted 10-fold cross-validated machine learning using elastic net regularization against an outcome of high versus low response to agomelatine. […]
The Cohen's d effect sizes at these weeks are all >0.4, indicating a substantial effect size for the prediction, especially considering that the meta-analytically calculated all-comer (i.e., unselected depression patients) effect size for the difference in treatment response to agomelatine (as monotherapy) versus placebo is d=0.26 (Cipriani et al., Lancet., 2018, 391 (10128): 1357-1366, PMID: 29477251).
Given the approximate 50% prevalence of positivity on the EEG machine learning model, one can estimate the agomelatine-placebo difference in EEG-predicted agomelatine responders by adding the all-comer effect size (d=0.26) to the enrichment in EEG-predicted responders over the all-comer population. This enrichment is calculated by halving the effect size between EEG-predicted responders and non-responders, since the average of these two groups is the all-comer population. […]

Compound | effect on circadian rhythm (circadian rhythm) | sleep measures assessed using actigraphic measurements (sleep measures) | all-comer effect size d, treatment response to agomelatine (as monotherapy) versus placebo [1] | Cohen's d effect size, predicted responders vs non-responders, change in MADRS scores ([2]; EEG sample entropy machine learning model, cross-validation left-out data of training dataset, all weeks (FIG. 2A)) | Cohen's d, predicted agomelatine responders versus non-responders, observed change in MADRS scores ([2]; EEG sample entropy model, holdout dataset, weeks 4, 6 and 8 (FIG. 2B)) | MADRS change, high vs low Pz low-gamma sample entropy patients ([2]; Pz electrode, 30-40 Hz, z≥0.27, full study sample, all weeks (FIG. 2C))
COc1ccc2[nH]cc(CCNC(C)=O)c2c1 [melatonin] | phase advance circadian rhythm |  |  |  |  | 
COc1ccc2cccc(CCNC(C)=O)c2c1 [agomelatine, N-[2-(7-methoxynaphthalen-1-yl)ethyl]acetamide] | phase advance circadian rhythm | improve sleep measures | 0.26 | > 0.4 | > 0.4 | strong and statistically significant prediction of treatment outcome across all weeks
